Measurements reported in ChEMBL document CHEMBL4610081, “Anti-inflammatory Metabolites from Chaetomium nigricolor” (J Nat Prod, 2020).
Activity calls are given as the source filed them. No cut-off for these calls is given here.

System: RAW264.7
Experiment: Antiinflammatory activity against mouse RAW264.7 cells assessed as inhibition of LPS-induced NO production preincubated for 3 hrs followed by LPS-stimulation and measured after 24 hrs by Griess reagent based assay
Format: functional, cell-based

Row | SMILES | Activity
1 | NC(=O)c1coc(Cc2ccccc2)cc1=O | inactive
2 | O=C(O)c1ccc(CO)o1 | inactive
